Measured values: US8637496B2, “Compounds having a monogalactosyldiacylglycerol synthase inhibitory activity as herbicide or algaecide, herbicide and algaecide compositions” (Commissariat a l'Energie Atomique, priority 2007, dated 2014)
Where a name gives a salt, the structure may show the parent alone.

Molecular target: T1, MGDG synthase in isolated spinach chloroplast envelope membranes (Spinacia oleracea, UniProt Q9SM44)
T1 construct: envelope membranes purified from the lysate by sucrose centrifugation gradient; from tissue; host or cells: envelope membranes of chloroplasts from spinach leaves
T1 sequence (Q9SM44 99-522): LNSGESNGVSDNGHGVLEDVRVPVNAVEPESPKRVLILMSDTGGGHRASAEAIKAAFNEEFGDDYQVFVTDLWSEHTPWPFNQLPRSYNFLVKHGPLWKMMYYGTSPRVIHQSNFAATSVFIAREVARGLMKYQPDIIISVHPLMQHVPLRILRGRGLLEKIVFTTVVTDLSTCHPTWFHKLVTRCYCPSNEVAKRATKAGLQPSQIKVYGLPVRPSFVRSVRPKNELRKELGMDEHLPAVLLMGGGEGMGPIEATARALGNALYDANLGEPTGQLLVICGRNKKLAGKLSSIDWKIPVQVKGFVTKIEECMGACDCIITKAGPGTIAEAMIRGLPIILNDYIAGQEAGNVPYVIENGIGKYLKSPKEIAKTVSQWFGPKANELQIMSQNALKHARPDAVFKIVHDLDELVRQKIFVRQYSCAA
Test: MGDG synthase activity in envelope membrane fractions isolated from spinach chloroplasts
Assay type: biochemical
Details: Table 1, obtained in the same manner as FIG. 4; read-out: Inhibitory effect on MGDG synthesis in isolated spinach chloroplast envelope membranes
Text: All the operations have been carried out as described in the article by Maréchal, E. et al., J. Biol. Chem., 1995, 270, 5714-5722. Crude chloroplasts were obtained from 3-4 kg of spinach leaves and purified by isopycnic centrifugation using Percoll gradients. Purified intact chloroplasts have then been lysed in hypotonic medium and envelope membranes purified from the lysate by sucrose centrifugation gradient as described in the article by Douce, R. and Joyard, J., (1982) in Methods in Chloroplast Molecular Biology (Edelman, M., Hallick R and Chua N H eds), pp 239-256, Elsevier Science Publishers B.V. Amsterdam.
MGDG synthase activity was assayed as described in the article by Maréchal et al. (1995).

SMILES	IC50
CC(CCOC(=O)N1CCC(n2c(=O)[nH]c3ccccc32)CC1)N(Cc1ccccc1)Cc1ccccc1 (stereo not shown) [Compound 32, 3-(dibenzylamino)butyl 4-(1,2-dihydro-2-oxobenzo[d]imidazol-3-yl)piperidine-1-carboxylate]	35 µM
CC(C)(C)OC(=O)N(CCOC(=O)N1CCC(n2c(=O)[nH]c3ccccc32)CC1)Cc1ccccc1 [Compound 65, 2-(benzyl(tert-butoxycarbonyl)amino)ethyl 4-(2-oxo-2,3-dihydro-1H-benzo[d]imidazol-1-yl)piperidine-1-carboxylate]	12 µM
O=C(OCCCN(Cc1ccccc1)Cc1cccc(Oc2ccccc2)c1)N1CCC(n2c(=O)[nH]c3ccccc32)CC1 [Compound 73, 3-(benzyl(3-phenoxybenzyl)amino)propyl 4-(2-oxo-2,3-dihydro-1H-benzo[d]imidazol-1-yl)piperidine-1-carboxylate hydrochloride]	15 µM
O=C(OCCCN(Cc1ccccc1)Cc1cccc(OCc2ccccc2)c1)N1CCC(n2c(=O)[nH]c3ccccc32)CC1 [Compound 84, 3-(benzyl(3-(benzyloxy)benzyl)amino)propyl 4-(2-oxo-2,3-dihydro-1H-benzo[d]imidazol-1-yl)piperidine-1-carboxylate]	45 µM
O=C(OCCCN(Cc1ccccc1)Cc1ccc(Cl)cc1)N1CCC(n2c(=O)[nH]c3ccccc32)CC1 [Compound 83, 3-(benzyl(4-chlorobenzyl)amino)propyl 4-(2-oxo-2,3-dihydro-1H-benzo[d]imidazol-1-yl)piperidine-1-carboxylate]	12 µM
O=C(OCCN1C(=O)c2ccccc2C1=O)N1CCC(n2c(=O)[nH]c3ccccc32)CC1 [Compound 15, 2-(1,3-dioxoisoindolin-2-yl)ethyl 4-(1,2-dihydro-2-oxobenzo[d]imidazol-3-yl)piperidine-1-carboxylate]	45 µM
O=C(OC[C@@H](Cc1ccccc1)N(Cc1ccccc1)Cc1ccccc1)N1CCC(n2c(=O)[nH]c3ccccc32)CC1 [Compound 43, (R)-2-(dibenzylamino)-3-phenylpropyl 4-(1,2-dihydro-2-oxobenzo[d]imidazol-3-yl)piperidine-1-carboxylate]	6 µM
O=C(OCCCN(Cc1ccccc1)Cc1cccs1)N1CCC(n2c(=O)[nH]c3ccccc32)CC1 [Compound 66, 3-(benzyl(thiophen-2-ylmethyl)amino)propyl 4-(2-oxo-2,3-dihydro-1H-benzo[d]imidazol-1-yl)piperidine-1-carboxylate hydrochloride]	50 µM
O=C(OCCN(Cc1ccccc1)Cc1ccc(OCc2ccccc2)cc1)N1CCC(n2c(=O)[nH]c3ccccc32)CC1 [Compound 77, 2-(benzyl(4-(benzyloxy)benzyl)amino)ethyl 4-(2-oxo-2,3-dihydro-1H-benzo[d]imidazol-1-yl)piperidine-1-carboxylate]	30 µM
O=C(OCCCN(Cc1ccccc1)Cc1ccccc1)N1CCC(n2c(=O)[nH]c3ccccc32)CC1 [Compound 10, 3-(dibenzylamino)propyl 4-(1,2-dihydro-2-oxobenzo[d]imidazol-3-yl)piperidine-1-carboxylate]	45 µM
COc1cccc(CN(CCCOC(=O)N2CCC(n3c(=O)[nH]c4ccccc43)CC2)Cc2ccccc2)c1 [Compound 68, 3-(benzyl(3-methoxybenzyl)amino)propyl 4-(2-oxo-2,3-dihydro-1H-benzo[d]imidazol-1-yl)piperidine-1-carboxylate hydrochloride]	80 µM
CC(C)(C)OC(=O)N(Cc1ccccc1)[C@H](COC(=O)N1CCC(n2c(=O)[nH]c3ccccc32)CC1)Cc1ccccc1 [Compound 86, (S)-2-(benzyl(tert-butoxycarbonyl)amino)-3-phenylpropyl 4-(2-oxo-2,3-dihydro-1H-benzo[d]imidazol-1-yl)piperidine-1-carboxylate]	5 µM
C[C@@H](COC(=O)N1CCCC(n2c(=O)[nH]c3ccccc32)CC1)N(Cc1ccccc1)Cc1ccccc1 (stereo partly drawn) [Compound 4, (S)-2-(dibenzylamino)propyl 4-(1,2-dihydro-2-oxobenzo[d]imidazol-3-yl)azepane-1-carboxylate]	200 µM
C[C@@H](COC(=O)N1CCC(n2c(=O)[nH]c3ccccc32)CC1)N(Cc1ccccc1)Cc1ccc(Br)cc1 [Compound 41, (S)-2-(benzyl(4-bromobenzyl)amino)propyl 4-(2-oxo-2,3-dihydro-1H-benzo[d]imidazol-1-yl)piperidine-1-carboxylate hydrochloride]	50 µM
C[C@@H](COC(=O)N1CCC(n2c(=O)[nH]c3ccccc32)CC1)N(Cc1ccccc1)Cc1ccc(F)cc1 [Compound 51, (S)-2-(benzyl(4-fluorobenzyl)amino)propyl 4-(2-oxo-2,3-dihydro-1H-benzo[d]imidazol-1-yl)piperidine-1-carboxylate hydrochloride]	40 µM
O=C(OCCCN(Cc1ccccc1)Cc1cccc2ccccc12)N1CCC(n2c(=O)[nH]c3ccccc32)CC1 [Compound 70, 3-(benzyl(naphthalen-1-ylmethyl)amino)propyl 4-(2-oxo-2,3-dihydro-1H-benzo[d]imidazol-1-yl)piperidine-1-carboxylate hydrochloride]	60 µM
C[C@@H](COC(=O)N1CCC(n2c(=O)[nH]c3ncccc32)CC1)N(Cc1ccccc1)Cc1ccccc1 [Compound 2, (S)-2-(dibenzylamino)propyl 4-(2,3-dihydro-2-oxoimidazo[4,5-b]pyridin-1-yl)piperidine-1-carboxylate]	100 to 500 µM
COc1cccc(CN(CCOC(=O)N2CCC(n3c(=O)[nH]c4ccccc43)CC2)Cc2ccccc2)c1 [Compound 48, 2-(benzyl(3-methoxybenzyl)amino)ethyl 4-(2-oxo-2,3-dihydro-1H-benzo[d]imidazol-1-yl)piperidine-1-carboxylate hydrochloride]	15 µM
COc1ccc(CN(Cc2ccccc2)[C@@H](C)COC(=O)N2CCC(n3c(=O)[nH]c4ccccc43)CC2)cc1 [Compound 39, (S)-2-(benzyl(4-methoxybenzyl)amino)propyl 4-(2-oxo-2,3-dihydro-1H-benzo[d]imidazol-1-yl)piperidine-1-carboxylate hydrochloride]	60 µM
CC(C)[C@@H](COC(=O)N1CCC(n2c(=O)[nH]c3ccccc32)CC1)N(Cc1ccccc1)Cc1ccccc1 [Compound 29, (S)-2-(dibenzylamino)-3-methylbutyl 4-(1,2-dihydro-2-oxobenzo[d]imidazol-3-yl)piperidine-1-carboxylate]	8 µM
C[C@@H](COC(=O)N1CCC(n2c(=O)[nH]c3ccccc32)CC1)N(CCCc1ccccc1)Cc1ccccc1 [Compound 52, (S)-2-(benzyl(3-phenylpropyl)amino)propyl 4-(2-oxo-2,3-dihydro-1H-benzo[d]imidazol-1-yl)piperidine-1-carboxylate hydrochloride]	60 µM
CC(C)C[C@@H](COC(=O)N1CCC(n2c(=O)[nH]c3ccccc32)CC1)N(Cc1ccccc1)C(=O)OC(C)(C)C [Compound 85, (S)-2-(benzyl(tert-butoxycarbonyl)amino)-4-methylpentyl 4-(2-oxo-2,3-dihydro-1H-benzo[d]imidazol-1-yl)piperidine-1-carboxylate]	10 µM
O=C(OC[C@H](c1ccccc1)N(Cc1ccccc1)Cc1ccccc1)N1CCC(n2c(=O)[nH]c3ccccc32)CC1 [Compound 34, (S)-2-(dibenzylamino)-2-phenylethyl 4-(1,2-dihydro-2-oxobenzo[d]imidazol-3-yl)piperidine-1-carboxylate]	40 µM
C[C@@H](COC(=O)N1CCC(n2c(=S)[nH]c3ccccc32)CC1)N(Cc1ccccc1)Cc1ccccc1 [Compound 25, (S)-2-(dibenzylamino)propyl 4-(1,2-dihydro-2-thioxobenzo[d]imidazol-3-yl)piperidine-1-carboxylate]	100 to 500 µM
O=C(OCCCN(Cc1ccccc1)Cc1cccc(Cl)c1)N1CCC(n2c(=O)[nH]c3ccccc32)CC1 [Compound 69, 3-(benzyl(3-chlorobenzyl)amino)propyl 4-(2-oxo-2,3-dihydro-1H-benzo[d]imidazol-1-yl)piperidine-1-carboxylate hydrochloride]	30 µM
O=C(OCC(c1ccccc1)c1ccccc1)N1CCC(n2c(=O)[nH]c3ccccc32)CC1 [Compound 18, 2,2-diphenylethyl 4-(1,2-dihydro-2-oxobenzo[d]imidazol-3-yl)piperidine-1-carboxylate]	50 µM
O=C(OCCN(Cc1ccccc1)Cc1ccc([N+](=O)[O-])cc1)N1CCC(n2c(=O)[nH]c3ccccc32)CC1 [Compound 28, 2-(N-(4-nitrobenzyl)-N-benzylamino)ethyl 4-(1,2-dihydro-2-oxobenzo[d]imidazol-3-yl)piperidine-1-carboxylate]	20 µM
CC(C)(C)C(COC(=O)N1CCC(n2c(=O)[nH]c3ccccc32)CC1)N(Cc1ccccc1)Cc1ccccc1 (stereo not shown) [Compound 31, 2-(dibenzylamino)-3,3-dimethylbutyl 4-(1,2-dihydro-2-oxobenzo[d]imidazol-3-yl)piperidine-1-carboxylate]	50 µM
